Columns and labels:
[1] = Animal experiments: combination with adriamycin, survival time
[2] = system: metastatic breast cancer and massive bone metastases; assay: Case 2: vitamin C infusions in a patient with metastatic breast cancer and bone metastases, with concomitant chemotherapy; assay type: in vivo, human; settings: ten infusions of 7.5 g vitamin C each
normal cell lines = settings: in the concentrations cytotoxic to tumor cell lines; cited from earlier work
[3] = Combination therapy of cytostatics with vitamin C: loss of cytostatic effect; settings: any of the cytostatics investigated
Excerpt: The side effects of chemotherapy are also attributed to an increase in the levels of free radicals in many tissues.

skin metastases = assay: Case 1: vitamin C infusions in a patient with breast carcinoma, local recurrences and skin metastases; assay type: in vivo, human; settings: vitamin C infusions of 7.5 g per infusion
terminal cancer patients = settings: 100 terminal cancer patients, 10 g vitamin C orally each day; cited from earlier work
cancer patients [4] = settings: high-dose vitamin C therapy, case reports; cited from earlier work
tumor cell lines = settings: in certain concentrations; cited from earlier work
cancer patients [5] = settings: intravenous 0.5 to 10 g/day, then oral 10 to 30 g, cited from earlier work
[6] = system: normal tissue (skin and bone marrow); assay: Adjuvant vitamin C infusions with radiation therapy: radiation tolerance of normal tissue; assay type: in vivo
[7] = intravenous infusion of 7.5 g vitamin C before and after each radiation

SMILES: O=C1O[C@H]([C@@H](O)CO)C(O)=C1O [vitamin C, ascorbic acid]
- survival time [1]: prolonged survival time
- pain caused by the bone metastases [2]: great relief from the pain
- blood picture (leukocytes and platelets) ([2]; concomitant chemotherapy): definite improvement in the blood picture (stabilization of leukocytes and platelets)
- growth of normal cell lines (normal cell lines): not influenced
- loss of effect of the cytostatics [3]: no loss of effect
- comparison with local-acting cytostatic administered previously (skin metastases): superior to the local-acting cytostatic administered previously
- effect on skin metastases (skin metastases): remission of the skin metastases
- survival time versus control group (terminal cancer patients): longer than that of the control group
- general condition and remissions (cancer patients [4]): improvement in general condition and spontaneous remissions
- effect on tumor cell lines (tumor cell lines): cytotoxic effect
- general well-being and Karnofsky scale (cancer patients [5]): improvement in general well-being and the Karnofsky scale
- pain in skeletal metastasis (cancer patients [5]): relief from pain in cases of skeletal metastasis
- protein tumor markers in the serum (cancer patients [5]): decline in protein tumor markers in the serum
- malignant pleural effusions and pulmonary metastases (cancer patients [5]; in favorable cases): absorption of malignant pleural effusions and a reduction in the size of pulmonary metastases
- radioprotective effect on bone marrow [6, 7]: greatly improved
- skin reactions accompanying radiation [6, 7]: can be prevented
- increase of radiation tolerance of normal tissue ([6]; vitamin C infusions, without increasing the radiation dose required to remove the tumors): about 20%
